Assay results: US11840686B2, “Modulation of prekallikrein (PKK) expression” (Ionis Pharmaceuticals, Inc., priority 2013, dated 2023)
Strand notation (5' to 3'): a small letter for the sugar, then the base; units joined by * are phosphorothioate-linked, units joined directly phosphodiester-linked; [ ] holds rarer units or linkages, { } end groups; capitals alone tell only the bases. e = 2'-O-(2-methoxyethyl) (MOE); [5mC] = 5-methylcytosine; d = 2'-deoxy (DNA)

Test system: human PKK mRNA
Test: Antisense inhibition of human PKK mRNA in HepaRG cells, 5,000 nM (Example 2)
Format: cell-based
How it was run: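 HepaRG cells (20,000/well) electroporated with 5,000 nM MOE gapmer (phosphorothioate backbone, 5-methylcytosines) and harvested after ~24 h. PKK mRNA measured by qRT-PCR with primer probe set RTS3454, normalized to RIBOGREEN total RNA; percent inhibition versus untreated cells.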

[1] = HepaRG cells, electroporation with 5,000 nM antisense oligonucleotide, approximately 24 hours, PKK mRNA by RT-PCR (RTS3454), relative to untreated control cells, Table 5 experiment
[2] = HepaRG cells, electroporation with 5,000 nM antisense oligonucleotide, approximately 24 hours, PKK mRNA by RT-PCR (RTS3454), relative to untreated control cells, Table 6 experiment
[3] = human PKK mRNA in HepaRG cells, 5-10-5 gapmers, Table 14
[4] = Table 9 experiment, HepaRG cells, 20,000 cells per well, electroporation with 5,000 nM antisense oligonucleotide, approx. 24 hours, PKK mRNA by RT-PCR (RTS3454), relative to untreated control cells
[5] = Table 10 experiment, HepaRG cells, 20,000 cells per well, electroporation with 5,000 nM antisense oligonucleotide, approx. 24 hours, PKK mRNA by RT-PCR (RTS3454), relative to untreated control cells
[6] = Table 13, human PKK mRNA in HepaRG cells, 5-10-5 gapmers
[7] = HepaRG cells, electroporation, 5,000 nM antisense oligonucleotide, approx. 24 hours, primer probe set RTS3454, relative to untreated control cells, Table 12
[8] = Table 7, HepaRG cells, electroporation with 5,000 nM antisense oligonucleotide, approx. 24 hours, PKK mRNA by RT-PCR (RTS3454), relative to untreated control cells
[9] = HepaRG cells, 5,000 nM antisense oligonucleotide, 5-10-5 gapmers, Table 17
[10] = HepaRG cells, electroporation, 5,000 nM antisense oligonucleotide, approx. 24 hours, primer probe set RTS3454, relative to untreated control cells, Table 11
[11] = HepaRG cells, 5,000 nM antisense oligonucleotide, human PKK mRNA, Table 18

## 546159 (eT*eA*eG*e[5mC]*eA*dA*dA*d[5mC]*dA*d[5mC]*d[5mC]*dT*dT*dG*dG*eG*eT*eG*eG*eA; antisense) [compound 546159]
[1]
  % inhibition: 76%

## 547679 (antisense eT*eG*eT*eA*e[5mC]*d[5mC]*dT*dA*dT*dA*dT*d[5mC]*dA*d[5mC]*dT*eG*eT*eA*eA*e[5mC]) [compound 547679]
HepaRG cells, 5,000 nM antisense oligonucleotide, 5-10-5 gapmers, Table 16
  % inhibition: 28%

## 547348 (antisense eA*e[5mC]*eA*e[5mC]*eT*dG*d[5mC]*dT*dA*dA*d[5mC]*d[5mC]*dT*dT*dA*eG*eA*e[5mC]*eA*e[5mC]) [compound 547348]
[2]
  % inhibition: 83%

## 547597 (antisense e[5mC]*eA*eA*eT*eA*dT*d[5mC]*dA*d[5mC]*dT*dG*dT*d[5mC]*d[5mC]*dT*eA*eT*eA*eT*e[5mC]) [compound 547597]
[3]
  % inhibition: 29%

## 547478 (antisense e[5mC]*eA*eT*eT*e[5mC]*dT*dT*d[5mC]*dA*dT*dT*dT*dG*dT*dT*eA*e[5mC]*e[5mC]*eA*eA) [compound 547478]
[4]
  % inhibition: 85%
[5]
  % inhibition: 55%

## 546844 (eG*eT*e[5mC]*e[5mC]*eT*dA*dT*dA*dT*d[5mC]*dA*d[5mC]*dT*dG*dT*e[5mC]*e[5mC]*eT*eA*eT; antisense) [compound 546844]
[6]
  % inhibition: 75%

## 547582 (eT*eA*eT*eA*eT*d[5mC]*dA*d[5mC]*dT*dG*dT*d[5mC]*d[5mC]*dT*dA*eT*eA*eA*e[5mC]*eT; antisense) [compound 547582]
[6]
  % inhibition: 22%

## 547356 (eT*eA*eA*eT*eA*dG*dG*d[5mC]*dA*dA*dT*dT*dG*dT*dT*e[5mC]*e[5mC]*eG*eG*eT; antisense) [compound 547356]
[2]
  % inhibition: 83%

## 546444 (e[5mC]*e[5mC]*eA*eG*eA*dA*dT*d[5mC]*dA*dT*dG*d[5mC]*d[5mC]*dT*dT*eG*eT*eG*eG*eG; antisense) [compound 546444]
[7]
  % inhibition: 61%

## 547397 (eG*eT*eT*e[5mC]*eA*dG*dG*dT*dA*dA*dA*dG*dT*dT*d[5mC]*eT*eT*eT*eT*eG; antisense) [compound 547397]
[8]
  % inhibition: 27%

## 547547 (antisense eG*e[5mC]*eA*eT*eA*d[5mC]*dT*d[5mC]*dG*d[5mC]*d[5mC]*dT*dT*dT*dG*eT*eG*eA*eT*eG) [compound 547547]
[7]
  % inhibition: 42%

## 547643 (eA*eT*e[5mC]*eA*e[5mC]*dT*dG*dT*d[5mC]*d[5mC]*dT*dA*dT*dA*dA*e[5mC]*eT*eA*eT*eA; antisense) [compound 547643]
Human PKK mRNA, HepaRG cells, 5-10-5 motif oligonucleotides targeting SEQ ID NO: 1 and 10
  % inhibition: 72%

## 546151 (eG*eG*eA*eA*eG*d[5mC]*dT*dA*d[5mC]*dA*dT*d[5mC]*d[5mC]*d[5mC]*d[5mC]*eA*e[5mC]*e[5mC]*eT*e[5mC]; antisense) [compound 546151]
[1]
  % inhibition: 76%

## 547738 (eT*eT*eG*eG*eT*dG*dG*dT*dG*dG*dG*dA*dT*dT*dG*eG*eT*eG*e[5mC]*eT; antisense) [compound 547738]
[9]
  % inhibition: 41%

## 546356 (antisense eT*e[5mC]*e[5mC]*eA*eG*dT*d[5mC]*d[5mC]*dA*dT*dG*dT*dA*d[5mC]*dT*e[5mC]*eA*eG*e[5mC]*eG) [compound 546356]
[10]
  % inhibition: 60%

## 546250 (e[5mC]*eA*eT*eT*e[5mC]*dA*dA*dT*dT*d[5mC]*dT*dT*d[5mC]*dT*d[5mC]*e[5mC]*eT*e[5mC]*e[5mC]*eA; antisense) [compound 546250]
[8]
  % inhibition: 65%

## 547724 (eG*eA*eT*eG*e[5mC]*dA*dT*d[5mC]*d[5mC]*dA*dA*d[5mC]*dA*d[5mC]*dT*eT*eA*e[5mC]*e[5mC]*e[5mC]; antisense) [compound 547724]
[9]
  % inhibition: 16%

## 547541 (antisense eT*eA*eT*eA*eG*dA*dT*dG*dT*dT*dT*dA*dT*dT*dG*eT*eA*eG*e[5mC]*e[5mC]) [compound 547541]
[7]
  % inhibition: 36%

## 546397 (eT*eT*eT*eT*eT*dT*dG*dA*dT*d[5mC]*dT*dT*dT*d[5mC]*dA*e[5mC]*e[5mC]*eA*eT*eT; antisense) [compound 546397]
[7]
  % inhibition: 55%

## 547370 (e[5mC]*eA*eA*eA*eA*dG*d[5mC]*dA*dT*d[5mC]*dT*dG*dG*dA*dG*eT*eG*eA*eG*eA; antisense) [compound 547370]
[8]
  % inhibition: 73%

## 546367 (antisense eA*eA*eA*eA*eA*dT*dT*dG*d[5mC]*d[5mC]*dT*dA*dG*dA*d[5mC]*eT*e[5mC]*eT*eG*eG) [compound 546367]
[10]
  % inhibition: 61%

## 547531 (antisense eT*eT*eA*eT*eT*dT*d[5mC]*dA*d[5mC]*dA*dA*d[5mC]*dA*d[5mC]*dA*e[5mC]*eA*eG*eT*e[5mC]) [compound 547531]
[7]
  % inhibition: 69%

## 546374 (antisense e[5mC]*e[5mC]*eA*eG*eG*d[5mC]*dT*d[5mC]*dA*dG*dA*dA*dT*dT*dT*eG*eA*e[5mC]*eT*eT) [compound 546374]
[10]
  % inhibition: 50%

## 547314 (antisense eG*e[5mC]*eA*e[5mC]*e[5mC]*dT*dG*dT*dT*d[5mC]*dG*dA*dT*dG*dT*eA*e[5mC]*eT*eT*eT) [compound 547314]
[2]
  % inhibition: 73%

## 547553 (antisense eT*eG*e[5mC]*eT*e[5mC]*d[5mC]*d[5mC]*d[5mC]*dA*dT*dG*d[5mC]*dA*dT*dA*e[5mC]*eT*e[5mC]*eG*e[5mC]) [compound 547553]
[7]
  % inhibition: 64%

## 546873 (e[5mC]*eA*eA*eT*eA*dT*d[5mC]*dA*d[5mC]*dT*dG*dT*dA*d[5mC]*d[5mC]*eT*eA*eT*eA*eA; antisense) [compound 546873]
[3]
  % inhibition: 34%

## 548713 (DNA e[5mC]*eA*e[5mC]*dT*dG*dT*dA*d[5mC]*dT*dA*dG*dT*dT*eT*e[5mC]*e[5mC]; antisense) [compound 548713]
[11]
  % inhibition: 33%

## 548724 (DNA eT*e[5mC]*eA*d[5mC]*dT*dG*dT*dA*d[5mC]*dT*dA*dG*dT*eT*eT*e[5mC]*e[5mC]; antisense) [compound 548724]
[11]
  % inhibition: 61%

## 546339 (antisense e[5mC]*eT*eT*eG*eA*dT*dA*dT*d[5mC]*dT*dT*dT*dT*d[5mC]*dT*eG*eG*e[5mC]*eA*eT) [compound 546339]
[4]
  % inhibition: 65%
[5]
  % inhibition: 64%

## 547488 (antisense eA*e[5mC]*eA*e[5mC]*e[5mC]*dA*dG*dG*dT*dT*dG*d[5mC]*dT*d[5mC]*d[5mC]*e[5mC]*eT*eG*e[5mC]*eG) [compound 547488]
[4]
  % inhibition: 71%
[5]
  % inhibition: 72%

## 546384 (antisense e[5mC]*eG*eT*e[5mC]*e[5mC]*dT*dT*dA*dG*dG*dA*dT*dG*d[5mC]*dA*eA*eA*eG*eA*eA) [compound 546384]
[10]
  % inhibition: 81%

## 547494 (antisense eT*eG*eG*eT*eG*dA*d[5mC]*dT*dG*d[5mC]*dA*dT*d[5mC]*dT*dG*eA*eG*e[5mC]*eT*eT) [compound 547494]
[10]
  % inhibition: 70%

## 547280 (antisense eG*eA*eA*eA*eA*d[5mC]*dA*d[5mC]*dA*dA*dT*dT*dG*d[5mC]*dT*eT*e[5mC]*eT*eT*eG) [compound 547280]
[1]
  % inhibition: 47%

## 546340 (antisense eT*eA*eA*eT*e[5mC]*dT*dT*dG*dA*dT*dA*dT*d[5mC]*dT*dT*eT*eT*e[5mC]*eT*eG) [compound 546340]
[4]
  % inhibition: 30%
[5]
  % inhibition: 56%

## 547524 (antisense e[5mC]*eA*eT*eT*eG*dT*d[5mC]*dA*dG*d[5mC]*d[5mC]*d[5mC]*d[5mC]*dT*dG*eG*eT*eT*eA*e[5mC]) [compound 547524]
[10]
  % inhibition: 58%

## 547300 (antisense eG*eA*eA*e[5mC]*eT*dT*dG*d[5mC]*dT*dG*dG*dA*dA*dG*dA*eA*eA*eA*e[5mC]*eT) [compound 547300]
[1]
  % inhibition: 37%

## 547776 (antisense eG*eG*eA*eG*eA*dG*dA*dG*dA*d[5mC]*dG*dG*d[5mC]*dA*d[5mC]*e[5mC]*e[5mC]*eT*eG*eT) [compound 547776]
[9]
  % inhibition: 48%

## 546228 (antisense eG*eT*eG*eA*e[5mC]*dT*d[5mC]*dG*dA*dT*dT*dT*dT*d[5mC]*d[5mC]*eA*eT*eA*e[5mC]*eA) [compound 546228]
[8]
  % inhibition: 60%

## 546285 (antisense eG*eT*eT*eA*e[5mC]*dA*d[5mC]*dA*dA*dT*d[5mC]*dT*d[5mC]*dA*dA*eA*eG*eA*eG*eT) [compound 546285]
Table 8, HepaRG cells, electroporation with 5,000 nM antisense oligonucleotide, approx. 24 hours, PKK mRNA by RT-PCR (RTS3454), relative to untreated control cells
  % inhibition: 76%
